In ChEMBL document CHEMBL1158267, “Lycaconitine revisited: partial synthesis and neuronal nicotinic acetylcholine receptor affinities” (J Nat Prod, 1996):

How the values were obtained:
[1] = target: Neuronal acetylcholine receptor; alpha4/beta2 (Rattus norvegicus, UniProt P09483+P12390); assay: Displacement of [3H]cytisine from alpha4beta2 nAChR in rat brain membrane; assay type: cell membranes
[2] = Toxicity in iv dosed mouse; assay type: organism-based; settings: in vivo
[3] = target: Neuronal acetylcholine receptor subunit alpha-7 (Rattus norvegicus, UniProt Q05941); assay: Displacement of [125I]alpha-bungarotoxin from alpha7 nAChR in rat brain membrane; assay type: cell membranes
Chain of Neuronal acetylcholine receptor subunit alpha-7 (Q05941 whole entry): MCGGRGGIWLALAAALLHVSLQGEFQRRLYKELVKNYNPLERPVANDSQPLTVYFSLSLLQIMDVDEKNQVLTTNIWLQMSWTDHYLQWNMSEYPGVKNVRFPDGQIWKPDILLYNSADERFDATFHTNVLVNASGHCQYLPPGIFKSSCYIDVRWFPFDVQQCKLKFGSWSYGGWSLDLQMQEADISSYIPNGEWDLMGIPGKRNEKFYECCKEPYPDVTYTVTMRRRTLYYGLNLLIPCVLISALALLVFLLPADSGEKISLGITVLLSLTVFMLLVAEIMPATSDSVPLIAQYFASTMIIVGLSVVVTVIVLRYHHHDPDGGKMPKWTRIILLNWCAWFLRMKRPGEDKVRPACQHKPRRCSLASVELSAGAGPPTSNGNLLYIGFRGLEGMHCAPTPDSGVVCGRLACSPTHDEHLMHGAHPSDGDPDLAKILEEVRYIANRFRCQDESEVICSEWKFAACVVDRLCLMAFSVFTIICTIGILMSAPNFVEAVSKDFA

Chain of Neuronal acetylcholine receptor; alpha4/beta2 (P09483 whole entry): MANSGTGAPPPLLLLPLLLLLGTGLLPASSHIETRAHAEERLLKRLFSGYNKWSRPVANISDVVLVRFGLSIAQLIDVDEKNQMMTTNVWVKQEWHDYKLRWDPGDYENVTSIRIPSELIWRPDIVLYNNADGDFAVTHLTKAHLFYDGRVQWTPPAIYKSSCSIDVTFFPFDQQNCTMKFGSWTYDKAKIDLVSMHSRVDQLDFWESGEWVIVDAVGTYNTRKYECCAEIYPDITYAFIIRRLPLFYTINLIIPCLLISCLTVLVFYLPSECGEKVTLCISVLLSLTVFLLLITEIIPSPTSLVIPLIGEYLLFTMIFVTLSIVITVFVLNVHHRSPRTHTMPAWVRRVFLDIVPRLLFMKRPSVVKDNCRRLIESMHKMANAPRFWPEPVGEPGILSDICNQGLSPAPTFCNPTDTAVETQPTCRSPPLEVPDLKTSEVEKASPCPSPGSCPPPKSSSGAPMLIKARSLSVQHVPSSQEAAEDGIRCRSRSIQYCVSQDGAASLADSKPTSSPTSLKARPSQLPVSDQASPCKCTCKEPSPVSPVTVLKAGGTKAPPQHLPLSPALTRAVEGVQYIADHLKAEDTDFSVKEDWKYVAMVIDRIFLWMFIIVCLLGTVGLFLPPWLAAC
Chain of Neuronal acetylcholine receptor; alpha4/beta2 (P12390 whole entry): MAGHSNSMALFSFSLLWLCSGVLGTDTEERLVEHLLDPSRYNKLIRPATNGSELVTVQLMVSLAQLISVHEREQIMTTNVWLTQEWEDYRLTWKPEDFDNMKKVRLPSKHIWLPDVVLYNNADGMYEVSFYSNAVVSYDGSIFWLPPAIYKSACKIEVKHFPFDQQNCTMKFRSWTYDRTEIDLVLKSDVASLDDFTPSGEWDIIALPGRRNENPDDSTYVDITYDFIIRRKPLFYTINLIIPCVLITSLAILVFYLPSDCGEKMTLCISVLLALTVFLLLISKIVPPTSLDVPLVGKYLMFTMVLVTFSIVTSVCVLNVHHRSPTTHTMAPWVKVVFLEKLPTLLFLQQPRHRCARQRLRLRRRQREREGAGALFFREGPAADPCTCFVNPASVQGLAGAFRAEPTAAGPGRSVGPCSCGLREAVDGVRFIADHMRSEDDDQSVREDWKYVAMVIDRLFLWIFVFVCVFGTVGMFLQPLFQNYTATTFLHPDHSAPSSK

Compound	Ki [1] [nM]	LD50 [2] [mg/kg]	Ki [3] [nM]
CCN1C[C@]2(COC(=O)c3ccccc3N3C(=O)CCC3=O)CC[C@H](OC)[C@]34C1[C@](O)([C@@H](OC)[C@H]23)[C@@]1(O)C[C@H](OC)[C@H]2C[C@@H]4[C@@H]1[C@H]2OC [LYCACONITINE]	1000	15	80
CCN1C[C@]2(COC(=O)c3ccccc3N3C(=O)C[C@H](C)C3=O)CC[C@H](OC)[C@@]34[C@@H]5C[C@H]6[C@H](OC)[C@@H]5[C@](O)(C[C@@H]6OC)[C@](O)([C@@H](OC)[C@H]23)[C@@H]14 [METHYLLYCACONITINE]		3	
